Our source for the GI50 and TGI values is PubChem BioAssay (NCI).

Among the test systems are HT29 colon; SK-MEL-5 melanoma; MALME-3M melanoma; NCI/ADR-RES ovarian; UACC-62 melanoma; OVCAR-4 ovarian; UACC-257 melanoma; TK-10 renal; UO-31 renal; 786-0 renal.
Common to all, as to assay: inhibition of tumour cell growth, NCI panel, 48 h

SMILES strings stand for the structures. Where “and” joins values, the source holds several entries; their conditions need not be identical. Identical values can stand only once.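 Following 48 hours of exposure in 96-well plates, responses at five concentrations were used to interpolate endpoints linearly. GI50 marks 50% less growth. At the TGI there is no net growth.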

On to `CC(C)c1ccc(Nc2nccc(-c3cnn4ncccc34)n2)cc1`, for which the GI50 in the test on HT29 colon was 0.6 µM; in the test with SK-MEL-5 melanoma it was 0.218 µM; in the test on MALME-3M melanoma, 1.04 µM; with NCI/ADR-RES ovarian, 0.584 µM; with UACC-62 melanoma, 0.326 µM; in the test with OVCAR-4 ovarian, 0.604 µM. For the same compound, the GI50 was 0.563 µM in the test with UACC-257 melanoma, 0.59 µM in the test with TK-10 renal, 0.804 µM in the test with UO-31 renal and 0.801 µM in the test on 786-0 renal. For the same compound, the TGI came out at 3.24 µM in the test on HT29 colon; 0.749 µM in the test with SK-MEL-5 melanoma; 4.01 µM with MALME-3M melanoma; 5.27 µM with NCI/ADR-RES ovarian; 1.13 µM in the test on UACC-62 melanoma; 2.63 µM in the test with OVCAR-4 ovarian. The TGI with UACC-257 melanoma was 1.6 µM; with TK-10 renal, 3.17 µM; in the test with UO-31 renal, more than 9.35 µM; with 786-0 renal it was 4.88 µM.

With `COc1cc(C2C3=C(COC3=O)Nc3cc4c(cc32)CCC4)cc2c1OCO2` (stereo not drawn), the GI50 in the test with HT29 colon was 0.0299 µM; in the test on SK-MEL-5 melanoma it was 0.0382 µM; in the test with MALME-3M melanoma, 19.1 µM; with NCI/ADR-RES ovarian it was 0.0345 µM; with UACC-62 melanoma, 0.051 µM; in the test with OVCAR-4 ovarian it was 0.0717 µM. For the same compound, the GI50 in the test on UACC-257 melanoma is 1.13 µM; in the test on TK-10 renal it was 10.1 µM; with UO-31 renal it was 1.05 µM; in the test on 786-0 renal, 0.0881 µM. The TGI turned out to be 0.845 µM in the test on HT29 colon; 0.264 µM with SK-MEL-5 melanoma; 74.6 µM in the test with MALME-3M melanoma; 0.881 µM in the test with NCI/ADR-RES ovarian; 17.7 µM in the test on UACC-62 melanoma; 19.8 µM in the test on OVCAR-4 ovarian. The TGI in the test with UACC-257 melanoma was determined as 63.3 µM; in the test with TK-10 renal, 32.4 µM; in the test with UO-31 renal it was 26.5 µM; in the test with 786-0 renal, 14.6 µM.

For the compound `COc1ccc(-c2nn(-c3cccc(Cl)c3)cc2-c2cc(-c3ccccc3)nc(N)n2)cc1`, the GI50 is 2.07 µM in the test with HT29 colon; 7.88 µM in the test on SK-MEL-5 melanoma; 8.95 µM in the test on MALME-3M melanoma; 8.72 µM in the test on NCI/ADR-RES ovarian; 8.06 µM in the test with UACC-62 melanoma; 2.42 µM in the test with OVCAR-4 ovarian. Further, the GI50 in the test with UACC-257 melanoma was 2.58 µM; in the test with TK-10 renal it was 11.8 µM; in the test on UO-31 renal it was 10 µM; with 786-0 renal, 4.94 µM. The TGI was determined as 4.32 µM with HT29 colon; 28.4 µM with SK-MEL-5 melanoma; 31.8 µM in the test with MALME-3M melanoma; 31 µM with NCI/ADR-RES ovarian; 26 µM with UACC-62 melanoma; 9.64 µM in the test with OVCAR-4 ovarian. Also, the TGI is 8.51 µM with UACC-257 melanoma, 24.1 µM in the test on TK-10 renal, 26.5 µM in the test with UO-31 renal and 26.4 µM with 786-0 renal.

Turning to `O=C(N/N=C/c1cc([N+](=O)[O-])ccc1O)c1cccc2ccccc12`, the GI50 with HT29 colon is 5.74 µM; in the test with SK-MEL-5 melanoma it was 3.15 µM; with MALME-3M melanoma, 3.12 µM; in the test with NCI/ADR-RES ovarian it was 2.32 µM; with UACC-62 melanoma, 2.98 µM; in the test on OVCAR-4 ovarian it was 1.2 µM. The GI50 with UACC-257 melanoma is 2.7 µM; in the test with TK-10 renal, 4.4 µM; in the test with UO-31 renal, 1.8 µM; in the test on 786-0 renal, 3.29 µM. Further, the TGI in the test with HT29 colon was more than 100 µM; with SK-MEL-5 melanoma, 14.3 µM; in the test on MALME-3M melanoma, 21.7 µM; in the test with NCI/ADR-RES ovarian, 51.6 µM; with UACC-62 melanoma, 26.4 µM; in the test with OVCAR-4 ovarian, 26.2 µM. Besides, the TGI with UACC-257 melanoma was 26.9 µM; in the test on TK-10 renal, 72.9 µM; with UO-31 renal, 19.5 µM; with 786-0 renal it was 27.7 µM.

On to `CSc1ccccc1C#Cc1ccccc1C#CCCCCO`, for which the GI50 is 5.46 µM with HT29 colon; 14 µM with SK-MEL-5 melanoma; 15.2 µM in the test with MALME-3M melanoma; 11.5 µM with NCI/ADR-RES ovarian; 13 µM in the test on UACC-62 melanoma; 17.7 µM in the test on OVCAR-4 ovarian. The GI50 in the test with UACC-257 melanoma was 18.5 µM; in the test with TK-10 renal it was 13.7 µM; in the test with UO-31 renal, 12.6 µM; in the test on 786-0 renal it was 11 µM. Further, the TGI in the test with HT29 colon amounted to 19.2 µM; with SK-MEL-5 melanoma, 27.6 µM; in the test with MALME-3M melanoma, 36.5 µM; in the test on NCI/ADR-RES ovarian, 31.1 µM; in the test with UACC-62 melanoma, 25.7 µM; with OVCAR-4 ovarian, 37.3 µM. Besides, the TGI was found to be 34.2 µM in the test with UACC-257 melanoma, 30.4 µM with TK-10 renal, 25.4 µM with UO-31 renal and 26.6 µM with 786-0 renal.

Take `Nc1nc(N)c(N=O)c(OCC2CCCCC2)n1`: the GI50 is 6.88 µM in the test on HT29 colon; 13.7 µM in the test with SK-MEL-5 melanoma; 3.06 µM and 7.32 µM with MALME-3M melanoma; 6.03 µM in the test with OVCAR-4 ovarian; 17.2 µM with UACC-257 melanoma; 15.9 µM with TK-10 renal. Further, the GI50 in the test with UO-31 renal is 3.24 µM; in the test with 786-0 renal, 20.9 µM. Moreover, the TGI was > 100 µM and 74.2 µM with HT29 colon; 60 µM and 42 µM with SK-MEL-5 melanoma; 36.8 µM and 52.7 µM in the test with MALME-3M melanoma; more than 100 µM with NCI/ADR-RES ovarian; 42.6 µM and 40.7 µM in the test on UACC-62 melanoma; more than 75.5 µM in the test on OVCAR-4 ovarian. Besides, the TGI in the test with UACC-257 melanoma is > 100 µM and 38.9 µM; in the test on TK-10 renal it was 57 µM and 34.5 µM; with UO-31 renal it was 39.1 µM and 39.7 µM; in the test on 786-0 renal, > 100 µM and 84.1 µM.

Consider `O=C(OCCBr)c1ccc(Cl)c([N+](=O)[O-])c1`, for which the GI50 is 2.51 µM in the test with HT29 colon; 14.9 µM in the test on SK-MEL-5 melanoma; 19.1 µM in the test with MALME-3M melanoma; 21.4 µM in the test on NCI/ADR-RES ovarian; 14.5 µM with UACC-62 melanoma; 10.2 µM in the test with OVCAR-4 ovarian. Besides, the GI50 in the test on UACC-257 melanoma was 9.02 µM; with TK-10 renal, more than 51.1 µM; in the test on UO-31 renal it was 2.72 µM; in the test with 786-0 renal, 18.6 µM. For the same compound, the TGI in the test with HT29 colon was 5.14 µM; in the test on SK-MEL-5 melanoma, 28.5 µM; in the test with MALME-3M melanoma, 43.4 µM; in the test with NCI/ADR-RES ovarian, 53.1 µM; in the test on UACC-62 melanoma it was 28.5 µM; with OVCAR-4 ovarian it was 23 µM. Further, the TGI was 22.9 µM in the test with UACC-257 melanoma, more than 86.8 µM in the test with TK-10 renal, 7.85 µM with UO-31 renal and 34.1 µM with 786-0 renal.

Turning to `CCCCN(CCCC)c1ccc(C(=NC(C)CCCN(CC)CC)c2ccc(N(C)C)cc2)cc1` (stereo not drawn), the GI50 in the test with HT29 colon was 0.58 µM; in the test with SK-MEL-5 melanoma, 0.806 µM; in the test with MALME-3M melanoma, 0.785 µM; with NCI/ADR-RES ovarian, 0.893 µM; in the test on UACC-62 melanoma, 0.909 µM; in the test on OVCAR-4 ovarian, 1.09 µM. The GI50 with UACC-257 melanoma is 0.915 µM; in the test with TK-10 renal, 1.34 µM; with UO-31 renal, 0.713 µM; in the test on 786-0 renal, 0.705 µM. For the same compound, the TGI is 1.58 µM in the test with HT29 colon; 1.5 µM in the test on SK-MEL-5 melanoma; 1.62 µM with MALME-3M melanoma; 1.94 µM in the test on NCI/ADR-RES ovarian; 1.91 µM in the test on UACC-62 melanoma; 3.34 µM in the test with OVCAR-4 ovarian. In addition, the TGI came out at 1.83 µM with UACC-257 melanoma, 3.99 µM in the test on TK-10 renal, 1.42 µM with UO-31 renal and 1.43 µM in the test with 786-0 renal.
